Experimental data: ChEMBL document CHEMBL1201862, “PubChem BioAssay data set” (2004)
Active and inactive are the calls of the source.

What was measured:
Cytochrome P450 3A4 [1] = target: T1, Cytochrome P450 3A4 (Homo sapiens, UniProt P08684); settings: Potency
Nonstructural protein 1 = Nonstructural protein 1 (Influenza A virus, UniProt Q194T2); type: functional, Influenza A virus (A/California/07/2009(H1N1))
[2] = target: T2, Zinc finger protein mex-5 (Caenorhabditis elegans, UniProt Q9XUB2); experiment: MEX-5/TCR-2 RNA interaction inhibitors, dose response, biochemical, C. elegans, fluorescence polarization (AID 1960)
T2 sequence (Q9XUB2 whole entry): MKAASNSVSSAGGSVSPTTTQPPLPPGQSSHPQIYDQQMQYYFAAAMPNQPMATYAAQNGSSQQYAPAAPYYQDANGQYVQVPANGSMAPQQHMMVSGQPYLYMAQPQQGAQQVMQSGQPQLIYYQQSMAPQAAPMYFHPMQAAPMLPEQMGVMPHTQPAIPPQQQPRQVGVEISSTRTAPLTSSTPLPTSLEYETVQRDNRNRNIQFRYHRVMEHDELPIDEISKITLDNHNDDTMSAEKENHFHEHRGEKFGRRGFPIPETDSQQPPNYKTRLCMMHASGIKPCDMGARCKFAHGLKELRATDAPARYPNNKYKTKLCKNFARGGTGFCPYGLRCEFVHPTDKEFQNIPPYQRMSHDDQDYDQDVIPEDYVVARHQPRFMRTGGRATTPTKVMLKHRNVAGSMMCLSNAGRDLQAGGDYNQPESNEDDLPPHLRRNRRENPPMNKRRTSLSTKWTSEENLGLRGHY

[3] = target: T3, RNA-binding protein pos-1 (Caenorhabditis elegans, UniProt G5EF15); experiment: inhibitors of POS-1/mex-3 RNA binding, dose response, biochemical, fluorescence polarization (AID 1964);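 note: purified POS-1 fused to maltose binding protein made in E. coli; potency of compounds blocking POS-1 binding to fluorescent RNA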
T3 sequence (G5EF15 whole entry): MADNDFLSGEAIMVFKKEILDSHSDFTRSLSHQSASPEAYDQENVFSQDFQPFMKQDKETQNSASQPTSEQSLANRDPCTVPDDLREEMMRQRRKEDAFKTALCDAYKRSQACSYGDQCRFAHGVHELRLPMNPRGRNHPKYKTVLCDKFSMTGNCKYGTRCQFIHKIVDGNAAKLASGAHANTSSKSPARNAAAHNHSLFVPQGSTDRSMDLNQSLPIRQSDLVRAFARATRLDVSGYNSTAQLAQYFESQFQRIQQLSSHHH

[4] = target: FAD-linked sulfhydryl oxidase ALR (Homo sapiens, UniProt P55789); experiment: inhibitors of human ALR sulfhydryl oxidase, dose response, biochemical, H2O2 detection, luminescence, cherry-pick (AID 493248)
Sequence of FAD-linked sulfhydryl oxidase ALR (P55789 whole entry): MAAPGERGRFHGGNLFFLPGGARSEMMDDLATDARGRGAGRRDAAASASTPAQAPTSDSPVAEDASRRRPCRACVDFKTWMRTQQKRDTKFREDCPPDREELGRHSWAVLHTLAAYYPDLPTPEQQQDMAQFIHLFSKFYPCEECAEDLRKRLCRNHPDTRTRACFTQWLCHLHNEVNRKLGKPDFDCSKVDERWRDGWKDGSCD

[5] = target: T4, High affinity choline transporter 1 (Homo sapiens, UniProt Q9GZV3); experiment: CHT inhibitors, dose response, cell-based, 5-point CRC, membrane potential dye (AID 504840); type: functional
T4 sequence (Q9GZV3 whole entry): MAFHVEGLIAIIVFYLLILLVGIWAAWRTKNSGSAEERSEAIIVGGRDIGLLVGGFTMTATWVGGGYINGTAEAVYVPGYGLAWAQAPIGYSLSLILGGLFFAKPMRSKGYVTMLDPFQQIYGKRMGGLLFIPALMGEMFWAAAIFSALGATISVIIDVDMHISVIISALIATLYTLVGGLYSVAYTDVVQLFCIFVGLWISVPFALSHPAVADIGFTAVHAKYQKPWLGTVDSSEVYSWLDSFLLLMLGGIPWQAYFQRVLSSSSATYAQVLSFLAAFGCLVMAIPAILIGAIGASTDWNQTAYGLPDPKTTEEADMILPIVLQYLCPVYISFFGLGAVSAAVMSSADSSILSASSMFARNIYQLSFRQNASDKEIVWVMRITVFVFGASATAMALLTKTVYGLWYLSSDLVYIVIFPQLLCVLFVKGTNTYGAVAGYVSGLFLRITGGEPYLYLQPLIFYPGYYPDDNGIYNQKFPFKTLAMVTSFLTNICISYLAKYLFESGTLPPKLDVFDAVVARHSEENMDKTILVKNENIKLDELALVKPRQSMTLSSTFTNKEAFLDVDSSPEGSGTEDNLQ

[6] = target: Luciferin 4-monooxygenase (Photinus pyralis, UniProt P08659); experiment: firefly luciferase enzyme inhibitors, dose response, biochemical, luminescence (AID 1891)
Sequence of Luciferin 4-monooxygenase (P08659 whole entry): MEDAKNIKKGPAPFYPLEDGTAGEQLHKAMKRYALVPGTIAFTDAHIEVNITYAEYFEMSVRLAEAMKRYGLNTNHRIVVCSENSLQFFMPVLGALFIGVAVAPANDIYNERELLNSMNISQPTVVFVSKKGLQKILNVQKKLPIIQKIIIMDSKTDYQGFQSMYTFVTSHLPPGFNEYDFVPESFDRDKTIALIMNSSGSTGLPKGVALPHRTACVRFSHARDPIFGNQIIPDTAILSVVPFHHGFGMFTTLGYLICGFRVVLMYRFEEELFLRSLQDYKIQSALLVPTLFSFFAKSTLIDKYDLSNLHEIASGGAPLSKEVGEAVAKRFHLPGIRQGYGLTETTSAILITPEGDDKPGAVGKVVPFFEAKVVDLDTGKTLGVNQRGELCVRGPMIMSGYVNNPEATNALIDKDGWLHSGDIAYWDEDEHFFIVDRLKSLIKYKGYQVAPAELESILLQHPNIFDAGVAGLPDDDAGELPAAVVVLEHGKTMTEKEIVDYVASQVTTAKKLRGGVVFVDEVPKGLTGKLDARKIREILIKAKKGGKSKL

[7] = Luminescence Cell-Based Dose Confirmation HTS to Identify Inhibitors of Platelet Dense Granule Release. [Related pubchem assays: 1663 (Primary HTS), 1678 (Summary of Project)]; type: functional
[8] = growth suppression of PTEN-null colon cells, dose response, cell-based, HCT116 PTEN knockout (AID 1047); type: functional;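 note: HCT116 colon tumor cells with PTEN knocked out; cells exposed to compound for 60 hours before readout; potency for loss of cell viability measured by luminescence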
[9] = growth suppression of beta-catenin-knockout colon cells, dose response, cell-based, HCT116, human colon tumor (AID 1045); type: functional;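 note: HCT116 colon tumor cells with beta catenin knocked out; cells exposed to compound for 60 hours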
[10] = Luminescence Cell-Based Dose Response HTS to Identify Inhibitors of 5'UTR Stem-Loop Driven Prion Protein mRNA Translation in H4 Neuroglioblastoma Cells. [Related pubchem assays: 1827 (Project Summary), 1813 (Primary HTS)]; type: functional
[11] = inhibitors of firefly luciferase expression or activity, dose response, H4 neuroglioma cells, luminescence (AID 1990); type: functional, cell-based
[12] = inhibitors of SNCA 5'UTR-driven reporter translation, confirmation, H4 neuroglioma cells, luminescence (AID 1988); type: functional, cell-based
[13] = target: T5, Corticotropin-releasing factor receptor 2/Corticotropin-releasing factor-binding protein (Homo sapiens, UniProt P24387+Q13324); experiment: activators of CRF receptor 2 with binding protein – uHTS hits, confirmation (AID 602473); type: functional; settings: read-out: EC50_Mean
T5 sequence (Q13324 whole entry): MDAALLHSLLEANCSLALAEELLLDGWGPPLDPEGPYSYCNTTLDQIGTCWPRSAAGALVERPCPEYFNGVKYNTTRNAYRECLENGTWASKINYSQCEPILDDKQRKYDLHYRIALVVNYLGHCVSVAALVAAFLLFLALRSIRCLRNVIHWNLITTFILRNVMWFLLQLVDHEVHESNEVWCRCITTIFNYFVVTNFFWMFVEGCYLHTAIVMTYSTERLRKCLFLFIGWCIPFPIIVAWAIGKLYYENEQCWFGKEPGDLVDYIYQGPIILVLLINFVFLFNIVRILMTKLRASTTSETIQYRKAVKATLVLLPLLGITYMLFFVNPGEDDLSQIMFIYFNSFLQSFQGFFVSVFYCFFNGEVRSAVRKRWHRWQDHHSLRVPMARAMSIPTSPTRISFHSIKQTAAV
T5 sequence (P24387 whole entry): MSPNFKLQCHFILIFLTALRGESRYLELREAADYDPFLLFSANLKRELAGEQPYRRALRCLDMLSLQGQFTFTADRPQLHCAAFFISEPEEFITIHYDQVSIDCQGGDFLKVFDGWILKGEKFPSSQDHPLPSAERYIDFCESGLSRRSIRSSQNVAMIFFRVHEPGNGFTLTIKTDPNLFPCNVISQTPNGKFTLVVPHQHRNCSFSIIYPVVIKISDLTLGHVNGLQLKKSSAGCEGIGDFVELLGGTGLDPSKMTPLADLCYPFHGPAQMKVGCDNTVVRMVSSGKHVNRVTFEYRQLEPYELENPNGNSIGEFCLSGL

Cytochrome P450 2C9 = Cytochrome P450 2C9 (Homo sapiens, UniProt P11712)
Sequence of Cytochrome P450 2C9 (P11712 whole entry): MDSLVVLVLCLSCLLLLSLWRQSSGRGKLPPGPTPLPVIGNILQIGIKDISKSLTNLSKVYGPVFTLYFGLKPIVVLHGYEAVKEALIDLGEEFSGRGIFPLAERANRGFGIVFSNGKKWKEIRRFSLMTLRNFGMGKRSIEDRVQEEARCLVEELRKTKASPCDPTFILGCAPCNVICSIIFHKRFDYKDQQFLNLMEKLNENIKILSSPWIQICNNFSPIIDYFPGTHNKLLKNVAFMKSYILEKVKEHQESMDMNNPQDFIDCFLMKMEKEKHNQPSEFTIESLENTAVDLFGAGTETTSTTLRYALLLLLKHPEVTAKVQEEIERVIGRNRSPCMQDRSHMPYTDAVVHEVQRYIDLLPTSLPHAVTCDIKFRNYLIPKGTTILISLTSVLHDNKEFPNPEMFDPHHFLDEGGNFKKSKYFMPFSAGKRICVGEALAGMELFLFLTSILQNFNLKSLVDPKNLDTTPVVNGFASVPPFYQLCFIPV

Cytochrome P450 3A4 [14] = target: T1, Cytochrome P450 3A4
Genome polyprotein = Genome polyprotein (dengue virus type 2, UniProt P29990); experiment: Dengue-2 NS5 methyltransferase inhibitors, primary screen, biochemical, confirmation dose response (AID 588689); type: functional
Sequence of Genome polyprotein (P29990 2492-3391 limits assumed): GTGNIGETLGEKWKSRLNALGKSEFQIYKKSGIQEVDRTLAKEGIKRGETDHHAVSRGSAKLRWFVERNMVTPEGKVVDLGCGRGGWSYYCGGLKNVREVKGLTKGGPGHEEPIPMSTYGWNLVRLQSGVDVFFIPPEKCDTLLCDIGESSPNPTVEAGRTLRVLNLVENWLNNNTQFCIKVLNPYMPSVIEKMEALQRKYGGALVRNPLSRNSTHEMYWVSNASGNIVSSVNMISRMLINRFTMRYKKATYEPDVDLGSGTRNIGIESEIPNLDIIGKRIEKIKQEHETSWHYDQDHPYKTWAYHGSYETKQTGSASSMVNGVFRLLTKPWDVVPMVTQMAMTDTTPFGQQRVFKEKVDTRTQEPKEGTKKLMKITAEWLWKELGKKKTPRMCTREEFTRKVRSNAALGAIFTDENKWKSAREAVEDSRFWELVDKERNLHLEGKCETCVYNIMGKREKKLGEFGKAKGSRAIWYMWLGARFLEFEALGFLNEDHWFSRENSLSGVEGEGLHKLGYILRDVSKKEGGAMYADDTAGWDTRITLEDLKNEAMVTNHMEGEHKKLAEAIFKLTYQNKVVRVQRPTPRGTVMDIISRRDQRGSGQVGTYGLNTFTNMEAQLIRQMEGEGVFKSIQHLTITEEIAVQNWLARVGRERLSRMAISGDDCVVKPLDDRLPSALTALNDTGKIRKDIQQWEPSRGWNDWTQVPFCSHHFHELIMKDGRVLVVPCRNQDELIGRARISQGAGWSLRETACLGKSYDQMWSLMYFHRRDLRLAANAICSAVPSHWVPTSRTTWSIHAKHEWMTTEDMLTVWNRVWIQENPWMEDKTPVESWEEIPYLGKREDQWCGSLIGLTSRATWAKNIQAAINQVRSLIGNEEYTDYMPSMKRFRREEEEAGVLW

[15] = Shn3 3'UTR reporter inhibitors, dose response, cell-based, Clone20 osteoblasts, firefly luciferase, cherry-picked (AID 624132); type: functional;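 note: firefly luciferase luminescence from reporter carrying the Shn3 3'UTR in osteoblasts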
[16] = control 3'UTR Renilla luciferase suppression, dose response, counter-screen for Shn3 inhibitor project, cell-based, Clone20-Shn3RL, cherry-picked (AID 624133); type: functional

T1 sequence (P08684 whole entry): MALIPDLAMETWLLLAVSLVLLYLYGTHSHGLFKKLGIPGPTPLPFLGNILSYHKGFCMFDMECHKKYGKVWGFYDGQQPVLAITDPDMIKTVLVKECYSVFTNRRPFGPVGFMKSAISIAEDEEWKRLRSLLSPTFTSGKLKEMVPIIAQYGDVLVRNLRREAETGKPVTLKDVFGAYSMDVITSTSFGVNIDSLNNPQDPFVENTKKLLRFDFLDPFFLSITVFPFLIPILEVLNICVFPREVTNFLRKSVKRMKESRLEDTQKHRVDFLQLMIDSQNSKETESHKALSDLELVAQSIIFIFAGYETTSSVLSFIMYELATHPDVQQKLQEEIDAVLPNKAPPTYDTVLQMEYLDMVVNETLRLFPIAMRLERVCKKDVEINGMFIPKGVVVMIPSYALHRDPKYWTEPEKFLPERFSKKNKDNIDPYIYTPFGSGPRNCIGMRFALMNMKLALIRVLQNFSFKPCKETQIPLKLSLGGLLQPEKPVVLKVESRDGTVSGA
Sequence of Nonstructural protein 1 (Q194T2 whole entry): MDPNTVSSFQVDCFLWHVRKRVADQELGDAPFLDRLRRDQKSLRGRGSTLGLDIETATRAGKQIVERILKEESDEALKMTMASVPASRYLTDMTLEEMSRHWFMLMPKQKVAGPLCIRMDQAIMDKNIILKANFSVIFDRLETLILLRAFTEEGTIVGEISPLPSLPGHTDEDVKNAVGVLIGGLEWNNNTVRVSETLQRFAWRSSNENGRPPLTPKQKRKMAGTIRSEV

O=C(OCC1CO1)C1CCCCC1C(=O)OCC1CO1 (stereo not given)
AC50 (Cytochrome P450 3A4 [1]): 25.1 µM (inconclusive)

COc1ccc(NC(=O)c2cc([N+](=O)[O-])ccc2NC(=O)CNCc2ccccn2)c(OC)c1
IC50 (Nonstructural protein 1): 4.45 µM (active)

COc1ccc(NC(=O)c2ccc(NCCCN3CCOCC3)c([N+](=O)[O-])c2)cc1
EC50 [2]: > 300 µM (not active)
EC50 [3]: > 300 µM (not active)

COc1ccc(-c2coc3cc(O)ccc3c2=O)c(OC)c1 [2'-METHOXYFORMONETIN]
AC50 (Cytochrome P450 3A4 [1]): 39.8 µM (inconclusive)

O=C(NCc1nnc(S)n1-c1ccc(Cl)c(Cl)c1)c1ccco1
AC50 [4]: 4.14 µM (active)

O=C(O)C1=CC[C@@H](c2ccc(Cl)cc2)N(S(=O)(=O)c2ccc(Cl)cc2)[C@H]1c1ccc(F)cc1
IC50 [5]: 13.2 µM (active)

CC(=O)c1cc2c(cc1O)OC(C)(C)C=C2
AC50 (Cytochrome P450 3A4 [1]): 31.6 µM (inconclusive)

Cc1cccc(/C=C\c2ccccc2)n1
AC50 (Cytochrome P450 3A4 [1]): 15.8 µM (inconclusive)

CC(C)(C)C(=O)/C(=C\c1ccc([N+](=O)[O-])cc1)n1cncn1
EC50 [6]: > 112 µM (not active)
EC50 [7]: 5.77 µM (active)
EC50 [8]: 1.58 µM (active)
EC50 [9]: 1.29 µM (active)

COc1ccc(N2CC(NC(=O)N3CCN(c4ccccc4)CC3)CC2=O)cc1 (stereo not given)
AC50 [4]: 4.41 µM (active)

Cc1ccc(-c2c[nH]c(SCCNC(=O)c3ccco3)n2)cc1
AC50 [4]: 2.88 µM (active)

CCCCCCCCN1[C@@H](CC(=O)O)c2ccc(C(F)(F)F)cc2S1(=O)=O
IC50 [5]: 18.2 µM (active)

CCN1C(C)=C(C(=O)OC)C(c2ccccc2)N2C(=O)[C@](O)(C(=O)OC)CC(C#N)=C12 (stereo not given in full)
AC50 (Cytochrome P450 3A4 [1]): 3.98 µM (inconclusive)

CCOc1cc(/C=C/c2cccc[n+]2C)ccc1OCC(=O)Nc1ccc(C)cc1
EC50 [2]: > 300 µM (not active)
EC50 [3]: > 300 µM (not active)

O=C(N/N=C/c1ccc(Cl)cc1)c1cc(-c2cccnc2)nc2ccccc12
EC50 [10]: 12.8 µM (active)
EC50 [11]: > 120 µM (not active)
EC50 [12]: 9.23 µM (active)

CC1CCCCC1NC(=O)Cn1nnc2ccccc2c1=O (stereo not given)
EC50 [10]: > 120 µM (not active)
EC50 [11]: > 120 µM (not active)
EC50 [12]: > 120 µM (not active)

Cc1cc(O)c(C=O)c(O)c1C(=O)O [HAEMATOMMIC ACID]
AC50 (Cytochrome P450 3A4 [1]): 25.1 µM (inconclusive)

CC(=O)c1ccc(S(=O)(=O)NCC(=O)NC(c2nc3ccccc3[nH]2)C(C)C)cc1 (stereo not given)
AC50 [4]: 0.113 µM (active)

CC(C)c1ccccc1NC(=O)COC(=O)CCN1C(=O)/C(=C\C=C\c2ccccc2)SC1=S
EC50 [10]: 27.8 µM (active)
EC50 [11]: 1.54 µM (active)
EC50 [12]: 7.14 µM (active)

O=C(Nc1ccccc1)c1cccc(S(=O)(=O)NC2CCCC2)c1
IC50 [5]: 13.2 µM (active)

Cc1c(C(=O)OC(C)C)sc(NC(=O)c2cccnc2)c1C#N
IC50 [5]: 1.82 µM (active)

CC1=CC(=C(C#N)c2nc3ccccc3s2)C=C(C)N1CC1CCCO1 (stereo not given)
EC50 [2]: 13.5 µM (inconclusive)
EC50 [3]: 12.3 µM (inconclusive)
EC50 [13]: 14.7 µM (active)

CCn1c(=N)c(S(=O)(=O)c2ccc(F)cc2)cc2c(=O)n3ccccc3nc21
EC50 [2]: 26.2 µM (inconclusive)
EC50 [3]: 7.64 µM (active)
AC50 (Cytochrome P450 2C9): 22.4 µM (inconclusive)
AC50 (Cytochrome P450 3A4 [14]): 10 µM (inconclusive)

O=C1NC(=O)C(=Cc2coc3ccccc3c2=O)C(=O)N1
IC50 [5]: 15.1 µM (active)
IC50 (Genome polyprotein): > 100 µM (active)

COC(=O)[C@@H]1C[C@H]2CC[C@H](O)C[C@H]2N1Cc1ccc(C(F)(F)F)cc1
AC50 (Cytochrome P450 3A4 [1]): 12.6 µM (inconclusive)

CCCc1cc(NCC2CCCO2)n2c(nc3ccccc32)c1C#N (stereo not given)
IC50 [5]: 8.03 µM (active)

CCCCN1C2=NCCCN2c2cc(C)c(C)cc21
AC50 [15]: 0.803 µM (active)
AC50 [16]: 4.56 µM (active)

CCOC(CNC(=O)CCc1c(C)nc2nc(C)nn2c1C)OCC
EC50 [2]: > 300 µM (not active)
EC50 [3]: > 300 µM (not active)

CN(C)c1ccc(N)cc1
AC50 (Cytochrome P450 3A4 [1]): 15.8 µM (inconclusive)

C=C[C@@](C)(O)CC[C@@H]1[C@@]2(C)CCCC(C)(C)[C@@H]2CC[C@@]1(C)O
AC50 (Cytochrome P450 3A4 [1]): 10 µM (inconclusive)

Cc1c(NC(=S)N/N=C/c2ccc([N+](=O)[O-])cc2O)c(=O)n(-c2ccccc2)n1C
IC50 (Nonstructural protein 1): 5.14 µM (active)

Nc1cc(Cl)cc(C(=O)O)c1Cl [CHLORAMBEN]
AC50 (Cytochrome P450 3A4 [1]): 25.1 µM (inconclusive)

Cc1cc(C)c2cc(C#N)c(N3CCCN(C(S)=NCCCN(C)C)CC3)nc2c1
EC50 [10]: > 120 µM (not active)
EC50 [11]: > 60 µM (not active)
EC50 [12]: 9.29 µM (active)

c1ccc(CNc2nc3ccccc3n3cnnc23)cc1
EC50 [10]: > 120 µM (not active)
EC50 [11]: > 120 µM (not active)
EC50 [12]: 22.2 µM (active)

CC(=O)N1c2ccc(S(=O)(=O)NCC3CCC(C(=O)N4CC(C)CC(C)C4)CC3)cc2CC1C (stereo not given)
EC50 [10]: > 120 µM (not active)
EC50 [11]: > 120 µM (not active)
EC50 [12]: > 120 µM (not active)
